Literature values as cited in patent EP1941860A1, “Topical formulations” (ACO Hud Nordic AB, priority 2006, dated 2008).

Conditions: in prior art formulations

concentration producing a stinging action: about 0.5 % by weight of the formulation
SMILES: CC(O)C(=O)O (stereo not shown) [lactic acid]
